Assay results published in PMC10176470, “Engaging a Non-catalytic Cysteine Residue Drives Potent and Selective Inhibition of Caspase-6” (Journal of the American Chemical Society, 2023).

Legend:
Format in all cases: cell-based
[1] = molecular target: proteins of HEK293T cells transiently overexpressing caspase-6 (Homo sapiens, UniProt P30050); conditions: protein RPL12 (P30050)
[2] = molecular target: proteins of HEK293T cells transiently overexpressing caspase-6 (Homo sapiens, UniProt Q9BVP2); conditions: exp_ref Probe; protein GNL3 (Q9BVP2); analysis C6
[3] = molecular target: T1, proteins of HEK293T cells transiently overexpressing caspase-6 (Homo sapiens, UniProt O43175); conditions: protein PHGDH (O43175)
T1 sequence (O43175 1-533): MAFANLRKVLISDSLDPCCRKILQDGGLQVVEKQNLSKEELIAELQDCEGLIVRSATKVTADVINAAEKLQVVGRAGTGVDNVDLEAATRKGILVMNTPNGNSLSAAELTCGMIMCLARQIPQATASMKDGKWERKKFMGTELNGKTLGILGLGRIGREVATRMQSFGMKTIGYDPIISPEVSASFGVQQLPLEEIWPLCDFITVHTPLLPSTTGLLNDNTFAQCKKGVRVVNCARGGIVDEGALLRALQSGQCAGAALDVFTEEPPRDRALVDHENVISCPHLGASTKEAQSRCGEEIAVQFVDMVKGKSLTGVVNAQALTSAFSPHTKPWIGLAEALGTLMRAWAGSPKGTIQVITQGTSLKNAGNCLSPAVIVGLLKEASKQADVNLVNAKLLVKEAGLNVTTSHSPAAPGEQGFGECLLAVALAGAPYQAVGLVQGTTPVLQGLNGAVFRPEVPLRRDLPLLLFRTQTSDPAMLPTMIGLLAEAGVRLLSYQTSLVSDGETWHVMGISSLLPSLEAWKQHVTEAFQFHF

[4] = molecular target: proteins of HEK293T cells transiently overexpressing caspase-6 (Homo sapiens, UniProt P33176); conditions: Probe; protein KIF5B P33176
[5] = molecular target: T2, proteins of HEK293T cells transiently overexpressing caspase-6 (Homo sapiens, UniProt P09936); conditions: protein UCHL1 (P09936)
T2 sequence (P09936 1-223): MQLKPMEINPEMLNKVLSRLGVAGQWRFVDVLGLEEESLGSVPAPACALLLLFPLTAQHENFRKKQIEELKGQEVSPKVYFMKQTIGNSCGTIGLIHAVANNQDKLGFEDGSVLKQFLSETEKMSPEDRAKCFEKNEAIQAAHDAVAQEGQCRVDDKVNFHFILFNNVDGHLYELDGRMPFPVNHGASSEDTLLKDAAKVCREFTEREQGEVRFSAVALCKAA

[6] = molecular target: proteins of HEK293T cells transiently overexpressing caspase-6 (Homo sapiens, UniProt Q92900); conditions: Probe; protein UPF1 Q92900
[7] = molecular target: proteins of HEK293T cells transiently overexpressing caspase-6 (Homo sapiens, UniProt P22314); conditions: exp_ref Probe; protein UBA1 (P22314); analysis C6
[8] = molecular target: proteins of HEK293T cells transiently overexpressing caspase-6 (Homo sapiens, UniProt Q9UEG4)
[9] = molecular target: proteins of HEK293T cells transiently overexpressing caspase-6 (Homo sapiens, UniProt P34932); conditions: Probe; protein HSPA4 P34932
[10] = molecular target: proteins of HEK293T cells transiently overexpressing caspase-6 (Homo sapiens, UniProt Q12905); conditions: exp_ref Probe; protein ILF2 (Q12905); analysis C6
[11] = molecular target: proteins of HEK293T cells transiently overexpressing caspase-6 (Homo sapiens, UniProt Q9NNW7); conditions: Probe; protein TXNRD2 Q9NNW7
[12] = molecular target: T3, proteins of HEK293T cells transiently overexpressing caspase-6 (Homo sapiens, UniProt Q8WUM4); conditions: protein PDCD6IP (Q8WUM4); exp_ref Probe; analysis C6
T3 sequence (Q8WUM4 1-868): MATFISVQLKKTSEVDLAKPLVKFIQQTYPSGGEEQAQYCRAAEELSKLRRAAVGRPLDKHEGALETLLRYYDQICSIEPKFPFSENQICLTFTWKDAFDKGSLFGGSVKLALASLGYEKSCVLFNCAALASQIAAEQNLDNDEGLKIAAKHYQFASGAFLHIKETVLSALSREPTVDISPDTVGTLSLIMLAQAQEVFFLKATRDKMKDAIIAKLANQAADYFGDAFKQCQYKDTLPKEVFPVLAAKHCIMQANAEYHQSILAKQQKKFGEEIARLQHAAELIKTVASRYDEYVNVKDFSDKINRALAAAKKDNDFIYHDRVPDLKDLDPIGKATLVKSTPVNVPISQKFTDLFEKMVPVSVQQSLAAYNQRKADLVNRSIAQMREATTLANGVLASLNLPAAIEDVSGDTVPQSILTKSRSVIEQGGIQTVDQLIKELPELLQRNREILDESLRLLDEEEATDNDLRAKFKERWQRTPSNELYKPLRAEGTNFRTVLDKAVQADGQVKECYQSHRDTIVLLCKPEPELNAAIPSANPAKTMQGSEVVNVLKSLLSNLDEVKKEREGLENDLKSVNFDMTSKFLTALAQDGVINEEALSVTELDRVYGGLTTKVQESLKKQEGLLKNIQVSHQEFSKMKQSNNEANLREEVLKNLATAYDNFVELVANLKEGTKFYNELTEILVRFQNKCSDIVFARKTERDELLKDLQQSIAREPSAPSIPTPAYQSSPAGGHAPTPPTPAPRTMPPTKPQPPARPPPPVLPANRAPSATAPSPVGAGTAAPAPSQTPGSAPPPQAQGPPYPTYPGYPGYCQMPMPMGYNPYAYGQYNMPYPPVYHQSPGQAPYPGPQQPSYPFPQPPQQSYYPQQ

[13] = molecular target: proteins of HEK293T cells transiently overexpressing caspase-6 (Homo sapiens, UniProt P62913); conditions: protein RPL11 (P62913)

Sequence of proteins of HEK293T cells transiently overexpressing caspase-6 (Homo sapiens, UniProt Q9UEG4) (Q9UEG4 whole entry): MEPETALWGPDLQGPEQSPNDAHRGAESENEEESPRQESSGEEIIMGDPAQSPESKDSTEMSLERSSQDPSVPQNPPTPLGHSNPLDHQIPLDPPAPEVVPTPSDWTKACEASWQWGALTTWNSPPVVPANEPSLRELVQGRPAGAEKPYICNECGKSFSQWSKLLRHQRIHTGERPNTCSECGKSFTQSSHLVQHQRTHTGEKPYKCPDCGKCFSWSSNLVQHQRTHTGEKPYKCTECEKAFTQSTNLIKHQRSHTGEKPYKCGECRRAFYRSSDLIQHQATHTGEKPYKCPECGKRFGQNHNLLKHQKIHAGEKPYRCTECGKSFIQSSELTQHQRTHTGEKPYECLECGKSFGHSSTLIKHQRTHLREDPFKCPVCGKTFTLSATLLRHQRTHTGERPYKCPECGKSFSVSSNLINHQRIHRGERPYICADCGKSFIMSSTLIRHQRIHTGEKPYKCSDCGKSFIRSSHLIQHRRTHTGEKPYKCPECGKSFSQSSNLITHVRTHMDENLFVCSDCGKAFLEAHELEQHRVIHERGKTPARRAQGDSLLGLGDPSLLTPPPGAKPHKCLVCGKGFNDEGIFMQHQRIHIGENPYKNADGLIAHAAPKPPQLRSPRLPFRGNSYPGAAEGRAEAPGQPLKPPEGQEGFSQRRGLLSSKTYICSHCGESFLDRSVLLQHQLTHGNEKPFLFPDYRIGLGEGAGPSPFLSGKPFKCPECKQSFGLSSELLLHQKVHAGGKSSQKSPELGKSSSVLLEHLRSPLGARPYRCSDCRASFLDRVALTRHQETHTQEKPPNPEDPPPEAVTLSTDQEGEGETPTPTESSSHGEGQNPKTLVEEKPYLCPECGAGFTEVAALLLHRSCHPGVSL
Sequence of proteins of HEK293T cells transiently overexpressing caspase-6 (Homo sapiens, UniProt P22314) (P22314 whole entry): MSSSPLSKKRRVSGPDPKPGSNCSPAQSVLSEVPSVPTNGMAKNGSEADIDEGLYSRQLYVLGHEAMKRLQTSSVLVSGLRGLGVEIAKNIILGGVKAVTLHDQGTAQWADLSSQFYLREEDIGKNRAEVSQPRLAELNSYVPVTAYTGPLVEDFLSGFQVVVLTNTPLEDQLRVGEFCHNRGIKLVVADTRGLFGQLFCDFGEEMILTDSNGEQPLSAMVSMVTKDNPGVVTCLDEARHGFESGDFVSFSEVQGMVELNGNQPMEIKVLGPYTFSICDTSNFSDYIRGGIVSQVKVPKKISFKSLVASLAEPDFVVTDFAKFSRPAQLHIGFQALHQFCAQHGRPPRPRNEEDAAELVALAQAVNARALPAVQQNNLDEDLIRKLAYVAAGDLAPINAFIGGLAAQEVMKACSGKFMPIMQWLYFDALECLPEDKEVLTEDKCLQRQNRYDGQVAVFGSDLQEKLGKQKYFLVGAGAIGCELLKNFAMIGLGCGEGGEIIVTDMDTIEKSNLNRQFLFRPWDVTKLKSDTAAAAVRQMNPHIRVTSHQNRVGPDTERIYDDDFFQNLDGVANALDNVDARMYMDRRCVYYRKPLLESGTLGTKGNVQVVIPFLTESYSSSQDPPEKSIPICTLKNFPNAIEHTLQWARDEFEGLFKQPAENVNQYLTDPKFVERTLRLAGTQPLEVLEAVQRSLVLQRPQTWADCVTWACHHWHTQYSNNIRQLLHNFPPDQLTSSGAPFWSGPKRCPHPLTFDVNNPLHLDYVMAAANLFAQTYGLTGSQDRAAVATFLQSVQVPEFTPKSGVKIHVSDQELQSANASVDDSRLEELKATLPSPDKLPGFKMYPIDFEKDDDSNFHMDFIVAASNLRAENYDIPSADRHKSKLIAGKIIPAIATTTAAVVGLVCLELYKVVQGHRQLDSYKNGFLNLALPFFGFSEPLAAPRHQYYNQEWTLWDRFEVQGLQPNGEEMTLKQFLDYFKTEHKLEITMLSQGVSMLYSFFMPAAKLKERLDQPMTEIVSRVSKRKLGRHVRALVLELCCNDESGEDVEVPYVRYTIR
Sequence of proteins of HEK293T cells transiently overexpressing caspase-6 (Homo sapiens, UniProt Q9BVP2) (Q9BVP2 whole entry): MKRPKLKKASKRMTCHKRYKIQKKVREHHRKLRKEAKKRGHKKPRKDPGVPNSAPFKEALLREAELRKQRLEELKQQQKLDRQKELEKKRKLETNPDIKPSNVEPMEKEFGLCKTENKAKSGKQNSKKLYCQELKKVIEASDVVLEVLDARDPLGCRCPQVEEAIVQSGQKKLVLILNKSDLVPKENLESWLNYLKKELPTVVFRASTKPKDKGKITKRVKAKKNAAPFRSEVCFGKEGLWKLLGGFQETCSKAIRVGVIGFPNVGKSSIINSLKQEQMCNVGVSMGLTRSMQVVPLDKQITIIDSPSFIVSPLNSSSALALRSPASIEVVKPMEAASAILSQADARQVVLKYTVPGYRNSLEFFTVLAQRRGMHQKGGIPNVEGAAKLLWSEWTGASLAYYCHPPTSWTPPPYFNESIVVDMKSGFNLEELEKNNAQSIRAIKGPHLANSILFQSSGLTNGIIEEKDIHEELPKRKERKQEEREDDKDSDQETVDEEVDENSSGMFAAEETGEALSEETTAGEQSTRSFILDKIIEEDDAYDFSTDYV
Sequence of proteins of HEK293T cells transiently overexpressing caspase-6 (Homo sapiens, UniProt P34932) (P34932 whole entry): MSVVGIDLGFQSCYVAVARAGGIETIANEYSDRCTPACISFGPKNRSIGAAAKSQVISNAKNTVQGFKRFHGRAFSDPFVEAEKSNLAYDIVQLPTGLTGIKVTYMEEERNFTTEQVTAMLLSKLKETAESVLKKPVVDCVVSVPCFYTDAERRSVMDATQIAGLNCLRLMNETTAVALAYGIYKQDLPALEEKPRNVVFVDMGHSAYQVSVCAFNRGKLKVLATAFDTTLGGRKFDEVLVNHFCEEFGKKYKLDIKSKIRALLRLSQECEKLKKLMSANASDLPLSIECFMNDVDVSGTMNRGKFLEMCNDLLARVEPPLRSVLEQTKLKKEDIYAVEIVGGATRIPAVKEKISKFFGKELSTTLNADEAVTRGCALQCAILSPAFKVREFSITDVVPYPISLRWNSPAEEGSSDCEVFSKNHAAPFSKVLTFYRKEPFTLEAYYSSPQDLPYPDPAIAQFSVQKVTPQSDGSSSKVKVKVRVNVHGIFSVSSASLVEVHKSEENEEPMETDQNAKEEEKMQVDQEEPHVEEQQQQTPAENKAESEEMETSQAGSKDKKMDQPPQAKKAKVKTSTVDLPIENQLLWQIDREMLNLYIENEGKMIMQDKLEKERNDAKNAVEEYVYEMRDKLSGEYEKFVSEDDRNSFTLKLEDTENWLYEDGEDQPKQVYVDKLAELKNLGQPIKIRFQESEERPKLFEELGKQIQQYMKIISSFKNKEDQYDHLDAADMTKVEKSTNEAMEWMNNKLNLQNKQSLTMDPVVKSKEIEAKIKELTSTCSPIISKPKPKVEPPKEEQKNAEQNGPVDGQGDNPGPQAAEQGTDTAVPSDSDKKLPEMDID
Sequence of proteins of HEK293T cells transiently overexpressing caspase-6 (Homo sapiens, UniProt Q9NNW7) (Q9NNW7 37-524): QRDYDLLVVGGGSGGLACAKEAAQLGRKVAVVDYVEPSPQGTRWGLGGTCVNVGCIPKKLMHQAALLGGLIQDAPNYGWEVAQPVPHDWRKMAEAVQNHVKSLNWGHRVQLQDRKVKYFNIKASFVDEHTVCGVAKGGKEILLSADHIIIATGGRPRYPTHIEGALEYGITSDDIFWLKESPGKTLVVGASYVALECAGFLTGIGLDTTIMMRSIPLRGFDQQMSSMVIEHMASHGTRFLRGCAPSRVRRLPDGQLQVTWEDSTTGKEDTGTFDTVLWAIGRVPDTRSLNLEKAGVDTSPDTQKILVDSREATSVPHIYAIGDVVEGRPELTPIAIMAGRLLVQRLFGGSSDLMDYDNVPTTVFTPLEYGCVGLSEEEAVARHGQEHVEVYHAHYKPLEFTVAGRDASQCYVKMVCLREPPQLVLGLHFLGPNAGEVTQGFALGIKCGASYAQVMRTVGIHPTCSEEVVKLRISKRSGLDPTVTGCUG
Sequence of proteins of HEK293T cells transiently overexpressing caspase-6 (Homo sapiens, UniProt Q92900) (Q92900 whole entry): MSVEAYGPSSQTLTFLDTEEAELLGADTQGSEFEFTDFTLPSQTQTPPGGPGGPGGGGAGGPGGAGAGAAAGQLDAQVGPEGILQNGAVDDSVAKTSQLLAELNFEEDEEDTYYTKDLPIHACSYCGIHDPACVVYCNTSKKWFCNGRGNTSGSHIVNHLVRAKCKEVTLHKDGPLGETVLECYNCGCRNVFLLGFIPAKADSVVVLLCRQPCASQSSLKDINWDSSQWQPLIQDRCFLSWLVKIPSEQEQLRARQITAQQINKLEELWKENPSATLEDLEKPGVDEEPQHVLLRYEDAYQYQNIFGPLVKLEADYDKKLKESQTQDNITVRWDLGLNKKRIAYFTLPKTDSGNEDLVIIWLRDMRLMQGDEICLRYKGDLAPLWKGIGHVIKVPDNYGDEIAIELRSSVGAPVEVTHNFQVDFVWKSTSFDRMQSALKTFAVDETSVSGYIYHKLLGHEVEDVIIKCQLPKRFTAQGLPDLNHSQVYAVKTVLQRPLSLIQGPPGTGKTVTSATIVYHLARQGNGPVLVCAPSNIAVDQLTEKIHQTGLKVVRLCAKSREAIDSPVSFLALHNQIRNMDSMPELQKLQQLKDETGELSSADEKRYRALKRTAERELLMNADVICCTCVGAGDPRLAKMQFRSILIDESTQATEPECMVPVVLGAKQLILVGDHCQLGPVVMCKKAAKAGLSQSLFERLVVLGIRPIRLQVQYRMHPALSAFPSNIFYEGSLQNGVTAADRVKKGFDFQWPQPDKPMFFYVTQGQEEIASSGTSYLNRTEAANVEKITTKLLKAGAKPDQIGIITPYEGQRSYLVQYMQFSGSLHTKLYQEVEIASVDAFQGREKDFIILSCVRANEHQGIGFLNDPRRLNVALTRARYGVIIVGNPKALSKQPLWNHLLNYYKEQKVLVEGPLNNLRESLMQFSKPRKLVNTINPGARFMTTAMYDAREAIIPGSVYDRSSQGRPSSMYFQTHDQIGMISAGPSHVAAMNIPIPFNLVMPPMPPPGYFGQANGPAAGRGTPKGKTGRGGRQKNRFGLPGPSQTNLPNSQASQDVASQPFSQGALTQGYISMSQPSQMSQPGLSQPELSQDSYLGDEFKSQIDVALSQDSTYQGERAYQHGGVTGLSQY

SMILES: C#CCOc1ccc([C@@H]2C[C@@H](C(=O)Nc3ccc(OC(F)(F)F)cc3)CN(S(=O)(=O)C=C)C2)cc1 (relative stereo) [13-t]
- enrich.exp.med ([1]; exp_ref Probe, analysis C6): 0.2557
- enrich.exp.med.lin [1]: 1.194
- enrich.exp.med.log2 [1]: 0.2557
- enrich.exp.med [2]: 0.541
- enrich.exp.med ([3]; exp_ref Probe, analysis C6): 1.1798
- enrich.exp.med.lin [3]: 2.265
- enrich.exp.med.log2 [3]: 1.1798
- enrich.exp.med [4]: -5.169
- enrich.exp.med.lin [5]: 3.454
- enrich.exp.med.log2 [5]: 1.788
- enrich.exp.med ([5]; exp_ref Probe, analysis C6): 1.788
- enrich.exp.med [6]: -0.4971
- enrich.exp.med [7]: 0.3187
- enrich.exp.med ([8]; Probe, protein ZNF629 Q9UEG4): -2.2193
- enrich.exp.med.lin ([8]; protein ZNF629 (Q9UEG4)): 0.2147
- enrich.exp.med.log2 ([8]; protein ZNF629 (Q9UEG4)): -2.2193
- enrich.exp.med [9]: -1.079
- enrich.exp.med [10]: 0.9081
- enrich.exp.med [11]: -0.4404
- enrich.exp.med [12]: 1.9
- enrich.exp.med.lin [13]: 2.408
- enrich.exp.med.log2 [13]: 1.268
- enrich.exp.med ([13]; exp_ref Probe, analysis C6): 1.268
